Where “and” joins values, the source holds several entries; their conditions need not be identical. Identical values can stand only once.
Assays:
human P450 51A1 [1] = target: T1, human P450 51A1 (Homo sapiens, UniProt Q16850); assay: Steady-state LC-UV assay of sterol oxidation to dihydro FF-MAS by reconstituted P450 51A1
T1 sequence (Q16850 1-509): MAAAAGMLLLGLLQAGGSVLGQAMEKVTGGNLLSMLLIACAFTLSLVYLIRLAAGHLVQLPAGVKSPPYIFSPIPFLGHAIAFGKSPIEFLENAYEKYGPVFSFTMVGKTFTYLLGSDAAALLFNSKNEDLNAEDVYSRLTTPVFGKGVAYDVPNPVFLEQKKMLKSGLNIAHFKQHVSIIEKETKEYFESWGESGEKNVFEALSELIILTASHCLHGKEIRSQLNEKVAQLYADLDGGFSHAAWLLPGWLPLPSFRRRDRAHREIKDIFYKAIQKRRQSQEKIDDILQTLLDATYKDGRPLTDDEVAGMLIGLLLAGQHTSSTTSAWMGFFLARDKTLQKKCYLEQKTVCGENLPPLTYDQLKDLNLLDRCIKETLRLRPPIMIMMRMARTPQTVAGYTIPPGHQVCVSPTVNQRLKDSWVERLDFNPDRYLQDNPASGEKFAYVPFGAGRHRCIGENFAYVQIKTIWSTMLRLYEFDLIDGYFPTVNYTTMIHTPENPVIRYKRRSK
Protocol: Steady-state incubations (500 μl) were generally done at 37 °C with 0.025 μM P450 51A1, 0.10 μM NADPH-P450 reductase, 100 μM L-α-dilauroyl-sn-glycero-3-phosphocholine, 50 mM potassium phosphate buffer (pH 7.4), 10% (v/v) glycerol, and an indicated concentration of each sterol (in 45% (w/v) HPCD). […] The sterols (stored at 4 °C) were prepared as described above and were heated to 37 °C and sonicated prior to use. Sterol working stocks were diluted in HPCD to ensure a constant concentration of cyclodextrin in each reaction. […] Accordingly, all reactions were done with this concentration of glycerol.
Reactions were preincubated (5 min, 37 °C) prior to initiation with an NADPH-regenerating system (0.5 mM NADP^+, 10 mM glucose 6-phosphate, and 2 μg ml^−1 glucose 6-phosphate dehydrogenase) ([60]) and were stopped after 5 min with the addition of CH2Cl2 (5 ml). (The NADPH-generating system, in addition to lower cost than NADPH, drives the reaction to avoid inhibition of the reductase by accumulated NADP^+). For the 14α-aldehyde, the times of preincubation and reaction were reduced (to 2 min and 1 min, respectively). The quenched mixture was centrifuged (2000g, 5 min), and 4 ml of the bottom (organic) layer was transferred to vials and brought to dryness under a stream of N2 gas. The dried residue was resuspended in CH3OH (100 μl) and was analyzed by UPLC using a 2.1 mm × 100 mm (1.7 μm) octadecylsilane (C18) column (held at 25 °C) and a Waters Acquity UPLC system. Samples (4 °C) were injected (10 μl) at a flow rate of 0.20 ml min^−1 using an isocratic mobile phase of CH3CN (only). The product (FF-MAS) was detected using a Waters Acquity photodiode array detector set at 250 nm (Fig. 4B). Data were processed using the MassLynx software (http://www.waters.com/waters/en_US/MassLynx-Mass-Spectrometry-Software-/nav.htm?cid=513164&locale=en_US), and the amount of product formed was calculated by comparison to a twelve-point dihydro FF-MAS standard curve. Determination of kcat and Km for each reaction was carried out by fitting the data to a Michaelis–Menten hyperbola, which was done using GraphPad Prism.
Incubations were run in triplicate, and the mean values (±SD) were calculated and plotted. The linear regression fits include the Prism error estimates for internal fitting (SE).

human P450 51A1 [2] = target: T1, human P450 51A1; assay: Single-turnover rapid-quench kinetics of [3-3H]-dihydrolanosterol oxidation (radio-HPLC); assay type: biochemical; set-up: made in house; host or cells: Escherichia coli
Protocol: All products were separated and quantified by radio-HPLC (Fig. S24).
Samples (held at 4 °C) were injected (45 μl) onto a Nova-Pak 3.9 mm × 150 mm (4 μm) octadecylsilane (C18) HPLC column (held at 23 °C). The products were separated at a flow rate of 1.0 ml min^−1 using an isocratic mobile phase composed of CH3CN (only) as was done for the LC-UV assays (above). The eluate from the column was mixed (1:2, v-v) with FlowLogic U scintillation cocktail, and radioactivity (^3H) was detected on a β-RAM Model 5 system (IN/US, LabLogic) (Fig. S24). Product formation was assessed as the relative contribution of each peak (in CPM) to the summed peak area of substrate and product(s).
The single-turnover experiments were performed using a KinTek rapid quench-flow apparatus (KinTek). This machine functions by forcing equal volumes (∼19 μl) of two separate solutions into a central mixing chamber, where the components are allowed to incubate for a predetermined period of time before an excess volume of quench solution (∼160 μl) stops the reaction and expels the mixture from the apparatus. […] After the predetermined incubation period, the reaction (37 °C) was quenched with HCl (1 M), and the mixture (∼200 μl) was collected into vials. The products of five identical reactions (time points) were combined and were extracted into CH2Cl2 (5 ml). An aliquot (4 ml) of the lower (organic) layer was removed into a fresh vial, and the extraction was repeated to maximize sample recovery. The pooled organic fraction (∼8 ml) was brought to dryness under a stream of N2 gas, and the residue was redissolved in 60 μl of CH3OH and transferred to LC vials for analysis.

[3] = time 0.05 s, start 7 µM dihydrolanosterol

## CC(C)CCCC(C)[C@H]1CC[C@@]2(C=O)C3=C(CC[C@]12C)[C@@]1(C)CC[C@H](O)C(C)(C)C1CC3 (stereo partly drawn) [14α-CHO dihydrolanosterol, 24,25-dihydro-14α-formyl lanosterol]
Human P450 51A1 [1]; oxidation to dihydro FF-MAS
  kcat relative to dihydrolanosterol: about 3 fold
  kcat/Km relative to dihydrolanosterol: about 3 fold
Human P450 51A1 [1]; substrate 0.25 µM, listed as 14-CHO dihydrolanosterol
  Rate of FF-MAS formation (replicates): 2.969 min⁻¹ and 3.528 min⁻¹ and 3.126 min⁻¹
Human P450 51A1 [1]; substrate 0.50 µM, listed as 14-CHO dihydrolanosterol
  Rate of FF-MAS formation (replicates): 7.815 min⁻¹ and 6.139 min⁻¹ and 6.658 min⁻¹
Human P450 51A1 [1]; substrate 0.75 µM, listed as 14-CHO dihydrolanosterol
  Rate of FF-MAS formation (replicates): 11.25 min⁻¹ and 9.099 min⁻¹ and 10.0823 min⁻¹
Human P450 51A1 [1]; substrate 1.00 µM, listed as 14-CHO dihydrolanosterol
  Rate of FF-MAS formation (replicates): 13.4 min⁻¹ and 13.67 min⁻¹ and 13.3 min⁻¹
Human P450 51A1 [1]; substrate 1.50 µM, listed as 14-CHO dihydrolanosterol
  Rate of FF-MAS formation (replicates): 18.85 min⁻¹ and 19.74 min⁻¹ and 19.25 min⁻¹
Human P450 51A1 [1]; substrate 2.50 µM, listed as 14-CHO dihydrolanosterol
  Rate of FF-MAS formation (replicates): 28.46 min⁻¹ and 30.67 min⁻¹ and 32.21 min⁻¹
Human P450 51A1 [1]; substrate 5.00 µM, listed as 14-CHO dihydrolanosterol
  Rate of FF-MAS formation (replicates): 52.7446 min⁻¹ and 50.4 min⁻¹ and 54.73 min⁻¹
Human P450 51A1 [1]; substrate 7.50 µM, listed as 14-CHO dihydrolanosterol
  Rate of FF-MAS formation (replicates): 65.76 min⁻¹ and 62.41 min⁻¹ and 66.11 min⁻¹
Human P450 51A1 [1]; substrate 10.00 µM, listed as 14-CHO dihydrolanosterol
  Rate of FF-MAS formation (replicates): 70.12 min⁻¹ and 63.34 min⁻¹ and 67.78 min⁻¹
Human P450 51A1 [1]; substrate 15.00 µM, listed as 14-CHO dihydrolanosterol
  Rate of FF-MAS formation (replicates): 72.18 min⁻¹ and 76.97 min⁻¹ and 69.96 min⁻¹
Human P450 51A1 [2]; [3]
  concentration in single-turnover reaction: 0 µM
Human P450 51A1 [2]; time 0.1 s
  concentration in single-turnover reaction: 0.8505 µM
Human P450 51A1 [2]; time 0.15 s
  concentration in single-turnover reaction: 1.1396 µM
Human P450 51A1 [2]; time 0.2 s
  concentration in single-turnover reaction: 1.6401 µM
Human P450 51A1 [2]; time 0.3 s
  concentration in single-turnover reaction: 1.848 µM
Human P450 51A1 [2]; time 0.4 s
  concentration in single-turnover reaction: 1.8837 µM
Human P450 51A1 [2]; time 0.6 s
  concentration in single-turnover reaction: 1.7976 µM
Human P450 51A1 [2]; time 0.8 s
  concentration in single-turnover reaction: 1.4126 µM
Human P450 51A1 [2]; time 1 s
  concentration in single-turnover reaction: 1.4476 µM
Human P450 51A1 [2]; time 1.2 s
  concentration in single-turnover reaction: 1.3349 µM
Human P450 51A1 [2]; time 1.6 s
  concentration in single-turnover reaction: 0.8218 µM
Human P450 51A1 [2]; time 2 s
  concentration in single-turnover reaction: 0.7105 µM
Human P450 51A1 [2]; time 3 s
  concentration in single-turnover reaction: 0 µM
Human P450 51A1 [2]; time 4 s
  concentration in single-turnover reaction: 0 µM
Human P450 51A1 [2]; time 7 s
  concentration in single-turnover reaction: 0 µM

## CC(C)CCCC(C)[C@H]1CC[C@@]2(C)C3=C(CC[C@]12C)[C@@]1(C)CC[C@H](O)C(C)(C)C1CC3 (some centres unmarked) [dihydrolanosterol, 24,25-dihydrolanosterol]
Human P450 51A1 [1]; oxidation to dihydro FF-MAS (epi-dihydro FF-MAS from epi substrate), 37 °C
  kcat: 0.50 ± 0.03 s⁻¹ and 0.50 s⁻¹
Human P450 51A1 [1]; substrate 0.25 µM
  Rate of FF-MAS formation (replicates): 0.9 min-1 and 1.0 min-1 (2×)
Human P450 51A1 [1]; substrate 0.50 µM
  Rate of FF-MAS formation (replicates): 2.4 min-1 (2×) and 2.1 min-1
Human P450 51A1 [1]; substrate 0.75 µM
  Rate of FF-MAS formation (replicates): 3.4 min⁻¹ and 3.0 min⁻¹ and 3.7 min⁻¹
Human P450 51A1 [1]; substrate 1.00 µM
  Rate of FF-MAS formation (replicates): 4.1 min⁻¹ and 4.3 min⁻¹ and 3.4 min⁻¹
Human P450 51A1 [1]; substrate 1.50 µM
  Rate of FF-MAS formation (replicates): 4.8 min⁻¹ and 6.3 min⁻¹ and 5.8 min⁻¹
Human P450 51A1 [1]; substrate 2.50 µM
  Rate of FF-MAS formation (replicates): 12.8 min⁻¹ and 12.1 min⁻¹ and 9.4 min⁻¹
Human P450 51A1 [1]; substrate 5.00 µM
  Rate of FF-MAS formation (replicates): 16.4 min-1 and 15.6 min-1 (2×)
Human P450 51A1 [1]; substrate 7.50 µM
  Rate of FF-MAS formation (replicates): 21.8 min⁻¹ and 17.6 min⁻¹ and 18.3 min⁻¹
Human P450 51A1 [1]; substrate 10.00 µM
  Rate of FF-MAS formation (replicates): 20.3 min⁻¹ and 21.5 min⁻¹ and 22.5 min⁻¹
Human P450 51A1 [1]; substrate 15.00 µM
  Rate of FF-MAS formation (replicates): 19.1 min⁻¹ and 23.3 min⁻¹ and 21.3 min⁻¹
Human P450 51A1 [2]; first step, 7 s^−1/0.23 μM
  kobs/Kd: 3e+07 M⁻¹ s⁻¹
Human P450 51A1 [2]; single turnover
  fraction of initial material persisting until > 4 s: ~20%
  time in which the reaction was completed: 7 s
  time of 50% decrease of substrate concentration: 0.10 s
Human P450 51A1 [2]; single turnover, 37 °C
  first-order exponential decay rate of substrate concentration: 8.7 s⁻¹
Human P450 51A1 [2]; single turnover, even with the lag
  apparent rate of overall oxidation to dihydro FF-MAS, single exponential fit: 0.8 s⁻¹
Human P450 51A1 [2]; [3]
  concentration in single-turnover reaction: 4.7572 µM
Human P450 51A1 [2]; time 0.1 s
  concentration in single-turnover reaction: 2.9911 µM
Human P450 51A1 [2]; time 0.15 s
  concentration in single-turnover reaction: 2.8308 µM
Human P450 51A1 [2]; time 0.2 s
  concentration in single-turnover reaction: 1.974 µM
Human P450 51A1 [2]; time 0.3 s
  concentration in single-turnover reaction: 2.0671 µM
Human P450 51A1 [2]; time 0.4 s
  concentration in single-turnover reaction: 1.9166 µM
Human P450 51A1 [2]; time 0.6 s
  concentration in single-turnover reaction: 1.5253 µM
Human P450 51A1 [2]; time 0.8 s
  concentration in single-turnover reaction: 1.5841 µM
Human P450 51A1 [2]; time 1 s
  concentration in single-turnover reaction: 1.0563 µM
Human P450 51A1 [2]; time 1.2 s
  concentration in single-turnover reaction: 1.1711 µM
Human P450 51A1 [2]; time 1.6 s
  concentration in single-turnover reaction: 1.3601 µM
Human P450 51A1 [2]; time 2 s
  concentration in single-turnover reaction: 1.0864 µM
Human P450 51A1 [2]; time 3 s
  concentration in single-turnover reaction: 1.1137 µM
Human P450 51A1 [2]; time 4 s
  concentration in single-turnover reaction: 0.3647 µM
Human P450 51A1 [2]; time 7 s
  concentration in single-turnover reaction: 0 µM

Reference: PMC10285260, “Processive kinetics in the three-step lanosterol 14α-demethylation reaction catalyzed by human cytochrome P450 51A1” (The Journal of Biological Chemistry, 2023)
